{
  "source": "patent US9642920B2",
  "about": "“Therapeutic agent delivery system and method” (Case Western Reserve University, priority 2009, dated 2017)",
  "key": {"[1]": {"experiment": "Surface plasmon resonance affinity between DOX and γ-CD", "assay_type": "binding", "conditions": "HBS-N buffer pH 7.4", "description": "(§1) Surface plasmon resonance (SPR) spectroscopy was performed on Biacore ×100 to characterize the affinity between DOX and β- and γ-CD. 6-NH2-β- and γ-CD monomers were immobilized onto CM5 sensor chips using amine-coupling chemistry. To optimize immobilization conditions, pH scouting was performed via suspending 0.1 mM of 6-NH2-β- and γ-CD monomers in various pH buffers (borate 8.5, HBS-N 7.4, PBS 7.4, acetate 5) and injecting the suspensions over the sensor chip surface. The carboxylic groups on the sensor chip surface were activated via n injection of 0.4 M EDC/0.1 M NHS. Surface immobilization in flow cell 2 proceeded with an injection of 0.1 mM of 6-amino-6-deoxy-β- or γ-CD monomers suspended in the previously determined optimal buffer, borate 8.5. Blank immobilization was performed in flow cell 1, which was used as a reference flow cell. Finally, unreacted reaction sites in both flow cells were inactivated by an injection of 1 M ethanolamine (pH 8.5). All injections were performed at […] for 7 min.\n(§2) Injections of 50 mM sodium hydroxide was used to wash off any bound DOX and regenerate the sensor chip surface in between sample injections. Successful regeneration was confirmed by examining the baseline signal prior to each injection and that after regeneration. […]"}, "[2]": {"system": "U-87 MG cells", "experiment": "Cytotoxicity of DOX against U-87 MG cells", "assay_type": "cell-based, human", "conditions": "2 μM of DOX", "protocol": "After another 24 hr incubation, 20 μl of a 5 mg/ml MTT solution was added to each well. The cells were incubated for 3 hr and the medium was then replaced by 200 μl of DMSO. After 30 min incubation, the plate was read using Synergy H1 with an absorbance wavelength of 590 nm. The results were normalized to readings from a set of wells with cells treated with no DOX, which represented 100% survival. Percent cell death was defined as 1-percent survival.\nA similar procedure was used when testing the cytoxicity of DOX against U-87 MG, a human glioblastoma cell line. However, instead of previously collected DOX solution, DOX solutions at desired concentrations were made fresh for this assay."}, "[3]": {"experiment": "Fluorometry characterization of DOX and CD affinity (β-CD)", "assay_type": "binding", "conditions": "cell culture medium, 37° C.", "description": "(§3) When DOX, a fluorescent compound, forms an inclusion complex with CD, the fluorescent signal is enhanced (1) due to diminished intermolecular quenching. Increasing the amount of β- and γ-CD monomers (0 mM-16 mM) were added to a constant concentration of DOX in cell culture medium at 37° C. (n=3). Aliquots were taken for fluorescence measurements (Synergy H1) with an excitation and emission wavelength of 498 nm and 590 nm, respectively. Based on a modified Benesi-Hildebrand equation, nonlinear regression analysis was performed in MATLAB to estimate the association constants (Ka)."}, "[4]": {"experiment": "Fluorometry characterization of DOX and CD affinity (γ-CD)", "assay_type": "binding", "conditions": "cell culture medium, 37° C.", "description": "as §3"}, "[5]": {"experiment": "Surface plasmon resonance affinity between DOX and β-CD", "assay_type": "binding", "conditions": "HBS-N buffer pH 7.4", "description": "as §1, §2"}},
  "data": [
    {"smiles": "COc1cccc2c1C(=O)c1c(O)c3c(c(O)c1C2=O)C[C@@](O)(C(=O)CO)C[C@@H]3O[C@H]1C[C@H](N)[C@H](O)[C@H](C)O1", "note": "[DOX, doxorubicin]", "values": [
      {"measurement": "Association Constant Ka γ-CD · DOX", "setting": "[1]", "value": "490 ± 7", "unit": "M⁻¹"},
      {"measurement": "U-87 MG cells killed", "setting": "[2]", "value": "~20", "unit": "%"},
      {"measurement": "Association Constant Ka β-CD · DOX", "setting": "[3]", "value": "153 ± 15", "unit": "M⁻¹"},
      {"measurement": "Association Constant Ka γ-CD · DOX", "setting": "[4]", "value": "264 ± 20", "unit": "M⁻¹"},
      {"measurement": "Association Constant Ka β-CD · DOX", "setting": "[5]", "value": "205 ± 5", "unit": "M⁻¹"}
    ]}
  ]
}
